Test results taken from patent US9682092B2, “Boron-containing small molecules as anti-inflammatory agents” (ANACOR PHARMACEUTICALS, INC., priority 2006, dated 2017).

melting point | SMILES
180 to 192 °C | COc1ccc(S(=O)(=O)c2ccc3c(c2)B(O)OC3)cc1 [C33, 6-(4-Methoxyphenylsulfonyl)-1,3-dihydro-1-hydroxy-2,1-benzoxaborole]
176 to 185 °C | CC(=O)Nc1ccc2c(c1)B(O)OC2 [C63, N-(1-hydroxy-1,3-dihydrobenzo[c][1,2]oxaborol-6-yl)acetamide]
145 to 151 °C | OB1OCc2ccc(-n3cc(Sc4ccccc4)c4cc(Cl)ccc43)cc21 [C80, 6-(5-chloro-3-(phenylthio)-1H-indol-1-yl)benzo[c][1,2]oxaborol-1(3H)-ol]
98 to 105 °C | OB1OCc2ccc(Oc3ccc(C(F)(F)F)cc3)cc21 [C87, 6-(4-(trifluoromethyl)phenoxy)benzo[c][1,2]oxaborol-1(3H)-ol]
111 to 113 °C | OB1OCc2ccc(Sc3ccc(C(F)(F)F)cc3)cc21 [C92, 6-(4-(trifluoromethyl)phenylthio)benzo[c][1,2]oxaborol-1(3H)-ol]
157 to 163 °C | O=S(=O)(c1ccc(Cl)cc1)c1ccc2c(c1)B(O)OC2 [C90, 6-(4-chlorophenylsulfonyl)benzo[c][1,2]oxaborol-1(3H)-ol]
95 to 100 °C | COc1ccc(Sc2ccc3c(c2)B(O)OC3)cc1 [C32, 6-(4-Methoxyphenylthio)-1,3-dihydro-1-hydroxy-2,1-benzoxaborole]
117 to 120 °C | CSc1ccc(Sc2ccc3c(c2)B(O)OC3)cc1 [C94, 6-(4-(methylthio)phenylthio)benzo[c][1,2]oxaborol-1(3H)-ol]
95 to 99 °C | OB1OCc2ccc(Oc3ccccc3)cc21 [C21, 6-Phenoxy-1,3-dihydro-1-hydroxy-2,1-benzoxaborole]
139 to 144 °C | Cc1ccc(Sc2ccc3c(c2)B(O)OC3)cc1 [C95, 6-(p-tolylthio)benzo[c][1,2]oxaborol-1(3H)-ol]
126 to 129 °C | COc1ccc(Oc2ccc3c(c2)B(O)OC3)cc1 [C31, 6-(4-Methoxyphenoxy)-1,3-dihydro-1-hydroxy-2,1-benzoxaborole]
121 to 124 °C | OB1OCc2ccc(Sc3ccccc3)cc21 [C28, 6-Phenylthio-1,3-dihydro-1-hydroxy-2,1-benzoxaborole]
135 to 138 °C | OB1OCc2ccc(Sc3ccc(F)cc3)cc21 [C44, 6-(4-fluorophenylthio)benzo[c][1,2]oxaborol-1(3H)-ol]
175 to 184 °C | O=S(=O)(Nc1ccc2c(c1)B(O)OC2)c1ccccc1 [C62, N-(1-hydroxy-1,3-dihydrobenzo[c][1,2]oxaborol-6-yl)benzenesulfonamide]
99 to 104 °C | OB1OCc2ccc(Sc3cccs3)cc21 [C43, 6-(thiophen-2-ylthio)benzo[c][1,2]oxaborol-1(3H)-ol]
85 to 95 °C | CN(c1ccc2c(c1)COB2O)S(=O)(=O)c1ccccc1 [C30, 5-(N-Methyl-N-phenylsulfonylamino)-1,3-dihydro-1-hydroxy-2,1-benzoxaborole]
110 to 117.5 °C | OB1OCc2ccc(F)cc21 [C13, 1,3-Dihydro-6-fluoro-1-hydroxy-2,1-benzoxaborole]
157 to 161 °C | OB1OCc2ccc(Sc3ccc(Cl)cc3)cc21 [C88, 6-(4-chlorophenylthio)benzo[c][1,2]oxaborol-1(3H)-ol]
149 to 154 °C | OB1OCc2ccc(-n3ccc4cc(Cl)ccc43)cc21 [C75, 6-(5-chloro-1H-indol-1-yl)benzo[c][1,2]oxaborol-1(3H)-ol]
159 to 164 °C | OB1OCc2cc(F)c(NCc3ccccc3)cc21 [C71, 6-(benzylamino)-5-fluorobenzo[c][1,2]oxaborol-1(3H)-ol]
135 to 140 °C | OB1OCc2ccc(-n3ccc4ccccc43)cc21 [C55, 6-(1H-indol-1-yl)benzo[c][1,2]oxaborol-1(3H)-ol]
115 to 123 °C | OB1OCc2ccc(N(Cc3ccccc3)Cc3ccccc3)cc21 [C78, 6-(dibenzylamino)benzo[c][1,2]oxaborol-1(3H)-ol]
186 to 193 °C | O=C(Nc1ccc2c(c1)B(O)OC2)c1ccccc1 [C52, N-(1-hydroxy-1,3-dihydrobenzo[c][1,2]oxaborol-6-yl)benzamide]
126 to 133 °C | OB1OCc2ccc(NCc3ccccc3)cc21 [C77, 6-(benzylamino)benzo[c][1,2]oxaborol-1(3H)-ol]
159 to 161 °C | OB1OCc2ccc(N3CCN(c4ccccc4)CC3)cc21 [C53, 6-(4-phenylpiperazin-1-yl)benzo[c][1,2]oxaborol-1(3H)-ol]
135 to 141 °C | COc1ccc2c(c1)c(Sc1ccccc1)cn2-c1ccc2c(c1)B(O)OC2 [C72, 6-(5-methoxy-3-(phenylthio)-1H-indol-1-yl)benzo[c][1,2]oxaborol-1(3H)-ol]
79 to 88 °C | [O-][S+](c1ccc(C(F)(F)F)cc1)c1ccc2c(c1)B(O)OC2 (centres unmarked) [C93, 6-(4-(trifluoromethyl)phenylsulfinyl)benzo[c][1,2]oxaborol-1(3H)-ol]
154 to 161 °C | [O-][S+](c1ccc(Cl)cc1)c1ccc2c(c1)B(O)OC2 (centres unmarked) [C89, 6-(4-chlorophenylsulfinyl)benzo[c][1,2]oxaborol-1(3H)-ol]
146 to 149 °C | N#Cc1cccc(Oc2ccc3c(c2)B(O)OC3)c1 [C19, 6-(3-Cyanophenoxy)-1,3-dihydro-1-hydroxy-2,1-benzoxaborole]

More lines, now with the values behind:

SMILES | melting point
COc1ccc2c(ccn2-c2ccc3c(c2)B(O)OC3)c1 [C68, 6-(5-methoxy-1H-indol-1-yl)benzo[c][1,2]oxaborol-1(3H)-ol] | 120 to 124 °C
OCc1cc2c(cc1Br)COB2O [C59, 5-bromo-6-(hydroxymethyl)benzo[c][1,2]oxaborol-1(3H)-ol] | > 257 °C
N#CCCSc1cn(-c2ccc3c(c2)B(O)OC3)c2ccc(Cl)cc12 [C76, 3-(5-chloro-1-(1-hydroxy-1,3-dihydrobenzo[c][1,2]oxaborol-6-yl)-1H-indol-3-ylthio)propanenitrile] | > 225 °C
OB1OCc2ccc(N3CCN(c4ccccn4)CC3)cc21 [C48, 6-(4-(pyridin-2-yl)piperazin-yl)benzo[c][1,2]oxaborol-1(3H)-ol] | 135 to 138 °C
CN(C)c1ccc2c(c1)B(O)OC2 [C51, 6-(dimethylamino)benzo[c][1,2]oxaborol-1(3H)-ol] | 120 to 123 °C
N#Cc1ccc(Oc2cccc(B(O)O)c2)cc1 [C98, 3-(4-Cyanophenoxy)phenylboronic acid] | 153 to 162 °C
O=S(=O)(c1ccccc1)N(c1ccc2c(c1)COB2O)S(=O)(=O)c1ccccc1 [C91, N-(1-hydroxy-1,3-dihydrobenzo[c][1,2]oxaborol-5-yl)-N-(phenylsulfonyl)benzenesulfonamide] | 142 to 152 °C
O=C(COc1ccc2c(c1)COB2O)N1CCN(c2ncccn2)CC1 [C47, 2-(1-hydroxy-1,3-dihydrobenzo[c][1,2]oxaborol-5-yloxy)-1-(4-(pyrimidin-2-yl)piperazin-1-yl)ethanone] | 190 to 195 °C
N#Cc1ccc(Oc2cccc3c2B(O)OC3)cc1 [C74, 4-(1-hydroxy-1,3-dihydrobenzo[c][1,2]oxaborol-7-yloxy)benzonitrile] | 148 to 153 °C
OB1OCc2cc3c(cc21)OCO3 [C69, 5,6-methylenedioxybenzo[c][1,2]oxaborol-1(3H)-ol.] | 185 to 189 °C
Cc1ccc2c(c1)COB2O [C8, 1,3-Dihydro-1-hydroxy-5-methyl-2,1-benzoxaborole] | 124 to 128 °C
N#Cc1ccc(Oc2ccc(B(O)O)cc2)cc1 | 194 to 198 °C
O=C(COc1ccc2c(c1)COB2O)N1CCCCC1 [C46, 2-(1-hydroxy-1,3-dihydrobenzo[c][1,2]oxaborol-5-yloxy)-1-(piperidin-1-yl)ethanone] | 158 to 163 °C
OB1OCc2ccc(N3CCOCC3)cc21 [C56, 6-morpholinobenzo[c][1,2]oxaborol-1(3H)-ol] | 128 to 132 °C
CCCCC(=O)c1cccc(COc2ccc3c(c2)COB3O)c1 [C45, 1-(3-((1-hydroxy-1,3-dihydrobenzo[c][1,2]oxaborol-5-yloxy)methyl)phenyl)pentan-1-one] | 96 to 98 °C
CCOC(=O)COc1ccc2c(c1)COB2O [C41, Ethyl 2-(1-hydroxy-1,3-dihydrobenzo[c][1,2]oxaborol-5-yloxy)acetate] | 134 to 137 °C
O=[N+]([O-])c1cc2c(cc1F)COB2O [C58, 5-fluoro-6-nitrobenzo[c][1,2]oxaborol-1(3H)-ol] | 162 to 167 °C
COc1ccc2c(c1)COB2O [C7, 1,3-Dihydro-1-hydroxy-5-methoxy-2,1-benzoxaborole] | 102 to 104 °C
Cc1cc(Oc2ccc(C#N)cc2)ccc1B(O)O [C99, 4-(4-Cyanophenoxy)-2-Methylphenylboronic acid] | 161 to 165 °C
OB1OCc2cccc(F)c21 [C86, 7-fluorobenzo[c][1,2]oxaborol-1(3H)-ol] | 120 to 124 °C
OB1OCc2ccc(Oc3ccc(OC(F)(F)F)cc3)cc21 [C29, 6-(4-trifluoromethoxyphenoxy)-1,3-dihydro-1-hydroxy-2,1-benzoxaborole] | 97 to 101 °C
OB1OCc2cc3c(cc21)COB3O [C60, 3,7-dihydro-1,5-dihydroxy-1H,3H-Benzo[1,2-c:4,5-c′]bis[1,2]oxaborole] | > 250 °C
Cc1cccc2c1B(O)OC2 [C65, 7-methylbenzo[c][1,2]oxaborol-1(3H)-ol] | 107 to 111 °C
OCc1cccc2c1B(O)OC2 [C64, 7-(hydroxymethyl)benzo[c][1,2]oxaborol-1(3H)-ol] | 241 to 250 °C
Nc1cc2c(cc1F)COB2O [C70, 6-amino-5-fluorobenzo[c][1,2]oxaborol-1(3H)-ol] | 142 to 145 °C
O=C(O)COc1ccc2c(c1)COB2O [C42, 2-(1-hydroxy-1,3-dihydrobenzo[c][1,2]oxaborol-5-yloxy)acetic acid] | 163 to 166 °C
COc1ccc2c(c1)c(SCCC#N)cn2-c1ccc2c(c1)B(O)OC2 [C73, 3-(1-(1-hydroxy-1,3-dihydrobenzo[c][1,2]oxaborol-6-yl)-5-methoxy-1H-indol-3-ylthio)propanenitrile] | 149 to 154 °C
